The record followed here is patent US10993950B2, “Medical device for the treatment of HPV cutaneous infections” (Poli MD S.R.L., priority 2017, dated 2021).

For this data set, the system named is SkinEthic RHE/S/17 reconstituted human epidermis. The data set can be described thus: TEM ultrastructure of artificial constructs of human skin (SkinEthic) after treatment with ASA compositions. Format: cell-based. The procedure: Experiments Comparing Different ASA-Containing Compositions on the Ultrastructure of Artificial Constructs of Human Skin (SkinEthic)
Artificial Constructs of Human Skin
SkinEthic™ RHE/S/17 reconstituted human epidermis samples were used. This is an in vitro reconstituted human epidermis from normal human keratinocytes grown on a polycarbonate filter at the air-liquid interface.
The tissue samples were removed from the protective agarose and incubated in a multiwell with 6 wells with 1 ml of maintenance medium per well.
After about 14 hours of incubation with the described-above compositions, the epidermis inserts were cut and fixed in 500 microliters of fixative (glutaraldehyde 2.5%, paraformaldehyde 2% in cacodylate buffer 0.1 M at pH 7.4) for 2 hours at room temperature.
After trimming small rectangles of fabric, the samples were included in an epoxy resin. Ultra-thin slices were obtained and placed on copper screens, then stained with uranyl acetate and lead citrate.

Take `CC(O)CO` (stereo not drawn) [Composition 3, propylene glycol]: the “overall appearance of the basal, spinous and granular layers (TEM)” value is “preserved and similar to the control”. Further, the “N. of corneocyte layers left after treatment” value (about 14 hours of incubation, TEM, not-treated control >25) is listed as 19-20. Also, the “efficacy as judged from corneocyte layers left” value (verbal rating of Table 1 data) is reported as “poor efficacy”.
